According to patent US6620967B1, “Ketosis-treating agent” (priority 1999, dated 2003):

System: Wistar male rats subjected to ketosis under starvation for 48 hours
Test: Effects at oral administration in rats subjected to ketosis under starvation
Format: in vivo, rat
Conditions: oral (into the stomach), 1 or 2 mmol/kg-body weight, blood from tail vein up to 240 minutes after administration
Method: Wistar male rats of 6 to 8 week age were subjected to ketosis under starvation for 48 hours and then used for experiment. Each of glutamine, glutamic acid, valine, isoleucine and serine was dissolved in water for injection and administered into the stomach using a gastroconductor to give a dose of 1 or 2 mmol/kg-body weight. As controls, the same quantity of water for injection was similarly administered, or each of glucose and alanine was similarly administered to give a dose of 1 or 2 mmol/kg-body weight.
Before the administration, and 30, 60, 90, 120, 180 and 240 minutes after the administration, blood was collected from a tail vein and the concentration of glucose in blood and the concentration of 3-hydroxybutyric acid usually measured for diagnosis of ketosis were measured.
FIGS. 1 to 10 show changes of the concentrations of glucose and 3-hydroxybutyric acid in blood, which are expressed as rates of change from the values before the administration (FIG. 1: water for injection, FIG. 2: 1 mmol/kg of glucose, FIG. 3: 1 mmol/kg of alanine, FIG. 4: 2 mmol/kg of alanine, FIG. 5: 1 mmol/kg of glutamine, FIG. 6: 1 mmol/kg of glutamic acid, FIG. 7: 1 mmol/kg of valine, FIG. 8: 2 mmol/kg of valine, FIG. 9: 2 mmol/kg of isoleucine, FIG. 10: 2 mmol/kg of serine). In the figures, the symbols “-∘-” and “-▴-” correspond to the rates of change of 3-hydroxybutyric acid and glucose, respectively.
Furthermore, as shown in the figures, the effect on reduction of ketone bodies disappeared within about 4 hours when glucose was used. On the other hand, when glutamine, glutamic acid, valine or isoleucine was used, the period of effecting the reduction of the concentration of ketone bodies was expected to be 24 hours or more, and therefore, they were effective as ketosis-treating agents having long duration of the effect.

Row | SMILES | concentration of glucose in blood, change from value before administration | concentration of ketone bodies (3-hydroxybutyric acid) in blood, change from value before administration
1 | N[C@@H](CO)C(=O)O [serine] | without largely increasing the concentration of glucose in blood | reduced the concentration of ketone bodies
2 | CC(C)[C@H](N)C(=O)O [valine] | without largely increasing the concentration of glucose in blood | reduced the concentration of ketone bodies
3 | CC[C@H](C)[C@H](N)C(=O)O [isoleucine] | without largely increasing the concentration of glucose in blood | reduced the concentration of ketone bodies
